Test system: 782815-120-R-J1-PDC complex spheroid viability
Test: Anticancer human tumor 782815-120-R-J1-PDC patient-derived colon adenocarcinoma cell line growth inhibition [RAS]
Conditions: for IC50: curve of first compound; for viability, T/C: stronger effect = lower value; active = viability on the fitted dose curve at most 10% of control; inactive = the rest
Summary of the method: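 Agents were tested in combination matrices in half-log decrements from a top concentration at or near clinical Cmax (10 microM if undetermined). Targets were multi-cell spheroids of tumour lines plus HUVEC and MSC stromal cells.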

[1] = second compound 0.0316 µM, first compound 0.00316 µM
[2] = second compound 0.0316 µM, first compound 0.01 µM
[3] = second compound 0.0316 µM, first compound 0.0316 µM
[4] = second compound 0.0316 µM, first compound 0.1 µM
[5] = second compound 0.0316 µM, first compound 0.316 µM
[6] = second compound 0.0316 µM, first compound 1 µM
[7] = second compound 0.1 µM, first compound 0.00316 µM
[8] = second compound 0.1 µM, first compound 0.01 µM
[9] = second compound 0.1 µM, first compound 0.0316 µM
[10] = second compound 0.1 µM, first compound 0.1 µM
[11] = second compound 0.1 µM, first compound 0.316 µM
[12] = second compound 0.1 µM, first compound 1 µM
[13] = second compound 0.316 µM, first compound 0.00316 µM
[14] = second compound 0.316 µM, first compound 0.01 µM
[15] = second compound 0.316 µM, first compound 0.0316 µM
[16] = second compound 0.316 µM, first compound 0.1 µM
[17] = second compound 0.316 µM, first compound 0.316 µM
[18] = second compound 0.316 µM, first compound 1 µM
[19] = second compound 1 µM, first compound 0.00316 µM
[20] = second compound 1 µM, first compound 0.01 µM
[21] = second compound 1 µM, first compound 0.0316 µM
[22] = second compound 1 µM, first compound 0.1 µM
[23] = second compound 1 µM, first compound 0.316 µM
[24] = second compound 1 µM, first compound 1 µM
[25] = second compound 0.00316 µM, first compound 0.0316 µM
[26] = second compound 0.00316 µM, first compound 0.1 µM
[27] = second compound 0.00316 µM, first compound 0.316 µM
[28] = second compound 0.00316 µM, first compound 1 µM
[29] = second compound 0.01 µM, first compound 0.0316 µM
[30] = second compound 0.01 µM, first compound 0.1 µM
[31] = second compound 0.01 µM, first compound 0.316 µM
[32] = second compound 0.01 µM, first compound 1 µM
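Note: spheroids exposed to compounds for 7 days before reading.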
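Throughout, for viability, T/C: 100% = DMSO vehicle control viability.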

Nc1ccn(C2OC(CO)C(O)C2(F)F)c(=O)n1 (stereo unspecified) + C#Cc1c(F)ccc2cc(O)cc(-c3ncc4c(N5CC6CCC(C5)N6)nc(OCC56CCCN5CC(F)C6)nc4c3F)c12
inactive: viability, T/C [1] 103% | viability, T/C [2] 92.8% | viability, T/C [3] 64.8% | viability, T/C [4] 54% | viability, T/C [5] 31.3% | viability, T/C [6] 28.6% | viability, T/C [7] 101% | viability, T/C [8] 91.1% | viability, T/C [9] 62.3% | viability, T/C [10] 47.8% | viability, T/C [11] 29.6% | viability, T/C [12] 26.3% | viability, T/C [13] 97.8% | viability, T/C [14] 92.2% | viability, T/C [15] 58.7% | viability, T/C [16] 50.2% | viability, T/C [17] 37.1% | viability, T/C [18] 25.3% | viability, T/C [19] 97.9% | viability, T/C [20] 81.9% | viability, T/C [21] 60.6% | viability, T/C [22] 43.5% | viability, T/C [23] 38.1% | viability, T/C [24] 26.7% | viability, T/C (second compound 3.16 µM, first compound 0.00316 µM) 96.8% | viability, T/C (second compound 3.16 µM, first compound 0.01 µM) 89.7% | viability, T/C (second compound 3.16 µM, first compound 0.0316 µM) 63.1% | viability, T/C (second compound 3.16 µM, first compound 0.1 µM) 49% | viability, T/C (second compound 3.16 µM, first compound 0.316 µM) 36.2% | viability, T/C (second compound 3.16 µM, first compound 1 µM) 28.1% | viability, T/C (second compound 10 µM, first compound 0.00316 µM) 101% | viability, T/C (second compound 10 µM, first compound 0.01 µM) 95.2% | viability, T/C (second compound 10 µM, first compound 0.0316 µM) 61.9% | viability, T/C (second compound 10 µM, first compound 0.1 µM) 42% | viability, T/C (second compound 10 µM, first compound 0.316 µM) 35.6% | viability, T/C (second compound 10 µM, first compound 1 µM) 27.1%
85.8 nM: IC50 (second compound 3.16 µM)
73.9 nM: IC50 (second compound 0.1 µM)
94.2 nM: IC50 (second compound 0.0316 µM)
85.2 nM: IC50 (second compound 0.316 µM)
62.7 nM: IC50 (second compound 10 µM)
71.4 nM: IC50 (second compound 1 µM)

NC1c2ccccc2OC12CCN(c1cnc3c(N4CCCc5ncccc54)n[nH]c3n1)CC2 (stereo unspecified) + C=CC(=O)N1CCN(c2nc(OCC3CCCN3C)nc3c(F)c(-c4nc(N)cc(C)c4C(F)(F)F)c(Cl)cc23)C(C)C1
> 10000 nM: IC50 (second compound 0.00316 µM) | IC50 (second compound 0.01 µM) | IC50 (second compound 0.0316 µM) | IC50 (second compound 0.1 µM) | IC50 (second compound 0.316 µM) | IC50 (second compound 1 µM)
inactive: viability, T/C [25] 94.4% | viability, T/C [26] 110% | viability, T/C [27] 95.4% | viability, T/C [28] 93.8% | viability, T/C (second compound 0.00316 µM, first compound 3.16 µM) 98.2% | viability, T/C (second compound 0.00316 µM, first compound 10 µM) 84.4% | viability, T/C [29] 98.4% | viability, T/C [30] 95.6% | viability, T/C [31] 89% | viability, T/C [32] 91.3% | viability, T/C (second compound 0.01 µM, first compound 3.16 µM) 93.8% | viability, T/C (second compound 0.01 µM, first compound 10 µM) 82.8% | viability, T/C [3] 96.4% | viability, T/C [4] 107% | viability, T/C [5] 98.3% | viability, T/C [6] 100% | viability, T/C (second compound 0.0316 µM, first compound 3.16 µM) 99.7% | viability, T/C (second compound 0.0316 µM, first compound 10 µM) 71.9% | viability, T/C [9] 95.1% | viability, T/C [10] 105% | viability, T/C [11] 91.7% | viability, T/C [12] 107% | viability, T/C (second compound 0.1 µM, first compound 3.16 µM) 95.8% | viability, T/C (second compound 0.1 µM, first compound 10 µM) 79.7% | viability, T/C [15] 98% | viability, T/C [16] 90.9% | viability, T/C [17] 88.5% | viability, T/C [18] 100% | viability, T/C (second compound 0.316 µM, first compound 3.16 µM) 94.3% | viability, T/C (second compound 0.316 µM, first compound 10 µM) 74.6% | viability, T/C [21] 108% | viability, T/C [22] 86.4% | viability, T/C [23] 103% | viability, T/C [24] 93.3% | viability, T/C (second compound 1 µM, first compound 3.16 µM) 91.8% | viability, T/C (second compound 1 µM, first compound 10 µM) 77.8%

Nc1ccn(C2OC(CO)C(O)C2(F)F)c(=O)n1 (stereo unspecified) + C=CC(=O)N1CCN(c2nc(OCC3CCCN3C)nc3c(F)c(-c4nc(N)cc(C)c4C(F)(F)F)c(Cl)cc23)C(C)C1
53.6 nM: IC50 (second compound 0.1 µM)
61.4 nM: IC50 (second compound 1 µM)
60.4 nM: IC50 (second compound 0.316 µM)
62.7 nM: IC50 (second compound 0.00316 µM)
inactive: viability, T/C (second compound 0.00316 µM, first compound 0.00316 µM) 90.9% | viability, T/C (second compound 0.00316 µM, first compound 0.01 µM) 81.2% | viability, T/C [25] 56.9% | viability, T/C [26] 46.9% | viability, T/C [27] 24.7% | viability, T/C [28] 19.1% | viability, T/C (second compound 0.01 µM, first compound 0.00316 µM) 93.9% | viability, T/C (second compound 0.01 µM, first compound 0.01 µM) 82% | viability, T/C [29] 57.8% | viability, T/C [30] 40.7% | viability, T/C [31] 23.6% | viability, T/C [32] 21% | viability, T/C [1] 99% | viability, T/C [2] 83.5% | viability, T/C [3] 57.9% | viability, T/C [4] 43.6% | viability, T/C [5] 27.1% | viability, T/C [6] 21.7% | viability, T/C [7] 93.3% | viability, T/C [8] 85.7% | viability, T/C [9] 54.3% | viability, T/C [10] 41.3% | viability, T/C [11] 31.2% | viability, T/C [12] 21.5% | viability, T/C [13] 92.3% | viability, T/C [14] 77.6% | viability, T/C [15] 61.6% | viability, T/C [16] 40.9% | viability, T/C [17] 29.4% | viability, T/C [18] 21.4% | viability, T/C [19] 92% | viability, T/C [20] 85.8% | viability, T/C [21] 58.8% | viability, T/C [22] 43% | viability, T/C [23] 29.2% | viability, T/C [24] 23.1%
53.2 nM: IC50 (second compound 0.01 µM)
58.9 nM: IC50 (second compound 0.0316 µM)
